{
  "source": "patent US20110207751A1",
  "about": "“HETEROCYCLIC COMPOUNDS AND USES AS ANTICANCER AGENTS” (priority 2010, published 2011)",
  "key": {"[1]": {"tested_on": "tubulin (vinblastine-binding site)", "assay": "Spin column assay with [^3H]vinblastine", "conditions": "tubulin with [^3H]vinblastine and unlabeled competitor, 37° C. 1 h", "experimental": "(§1) Spin column assay. […] The reaction mixtures were incubated at 37° C. for 1 h. The samples were loaded onto Illustra™ MicroSpin™ G-50 columns (GE Healthcare) previously equilibrated with the buffer solution. The columns were placed into 1.5-ml tubes and spun at 750 g for 2 min at room temperature, and radioactivity in the flow-through was analyzed by a scintillation counter."}, "[2]": {"tested_on": "KB cells (parental cervical cancer cell line)", "assay": "Inhibition of cell proliferation, xCelligence cell index", "type": "cell-based", "conditions": "Homo sapiens, 72 hr post compound treatment, read-out: calculated IC50", "from_the_text": "(§2) The biological activity of compounds disclosed herein was monitored and profiled using the Real-Time Cell Electronic Sensing (RT-CES®) system from ACEA Biosciences, Inc. The RT-CES system utilizes cell-substrate impedance technology to monitor cellular behavior inside tissue culture wells in a microtiter plate format. The technology features in the integration of molecular and cell biology with microelectronics and is based on the electronic detection of biological assay process.\nFor measurement of cell-substrate or cell-electrode impedance using RT-CES technology, microelectrodes having appropriate geometries are fabricated onto the bottom surfaces of microtiter plate or similar device, facing into the wells. Cells are introduced into the wells of the devices, and make contact to and attach to the electrode surfaces. The presence, absence or change of properties of cells affects the electronic and ionic passage on the electrode sensor surfaces. Measuring the impedance between or among electrodes provides important information about biological status of cells present on the sensors. When there are changes to the biological status of the cells analogue electronic readout signals are measured automatically and in real time, and are converted to digital signals for processing and for analysis. In a RT-CES system, a cell index (arbitrary representation of change in impedance) is automatically derived and provided based on measured electrode impedance values. The cell index obtained for a given well reflects: 1) how many cells are attached to the electrode surfaces in this well; 2) how well cells are attached to the electrode surfaces in this well. […]\nTo quantify cell status based on the measured cell-electrode impedance, a parameter termed Cell Index is derived. Cell Index is a quantitative measure of the status of the cells in an electrode-containing well. […]\nThe parental cervical cancer cell line, KB cells were first tested. […] The cell status was monitored prior to and after the compound addition using xCelligence system (Roche). […]"}, "[3]": {"tested_on": "tubulin (colchicine-binding site)", "assay": "Spin column assay with [^3H]colchicine", "conditions": "tubulin with [^3H]colchicine and unlabeled competitor, 37° C. 1 h", "experimental": "as §1"}, "[4]": {"tested_on": "KB200 cells over-expressing multiple drug resistant (MDR) gene", "assay": "Inhibition of cell proliferation, xCelligence cell index", "type": "cell-based", "conditions": "Homo sapiens, 72 hr post compound treatment, read-out: calculated IC50", "from_the_text": "as §2\nFor measurement of cell-substrate or cell-electrode impedance using RT-CES technology, microelectrodes having appropriate geometries are fabricated onto the bottom surfaces of microtiter plate or similar device, facing into the wells. Cells are introduced into the wells of the devices, and make contact to and attach to the electrode surfaces. The presence, absence or change of properties of cells affects the electronic and ionic passage on the electrode sensor surfaces. Measuring the impedance between or among electrodes provides important information about biological status of cells present on the sensors. When there are changes to the biological status of the cells analogue electronic readout signals are measured automatically and in real time, and are converted to digital signals for processing and for analysis. In a RT-CES system, a cell index (arbitrary representation of change in impedance) is automatically derived and provided based on measured electrode impedance values. The cell index obtained for a given well reflects: 1) how many cells are attached to the electrode surfaces in this well; 2) how well cells are attached to the electrode surfaces in this well. Thus, the more the cells of same type in similar physiological conditions attach the electrode surfaces, the larger the cell index. And, the better the cells attach to the electrode surfaces (e.g., the cells spread-out more to have larger contact areas, or the cells attach tighter to electrode surfaces), the larger the cell index.\nTo quantify cell status based on the measured cell-electrode impedance, a parameter termed Cell Index is derived. Cell Index is a quantitative measure of the status of the cells in an electrode-containing well. Under the same physiological conditions, more cells attached on to the electrodes leads to larger cell-electrode resistance value, leading to a larger value for Cell Index. Furthermore, for the same number of cells present in the well, a change in the cell status such as morphology will lead to a change in the Cell Index. […]\nThe efficacy of these compounds was also tested against KB200 cell over-expressing multiple drug resistant (MDR) gene. […] The cell status was monitored prior to and after the compound addition using xCelligence system (Roche). […]"}},
  "data": [
    {"smiles": "CC[C@]1(O)C[C@@H]2CN(CCc3c([nH]c4ccccc34)[C@@](C(=O)OC)(c3cc4c(cc3OC)N(C)[C@H]3[C@@](O)(C(=O)OC)[C@H](OC(C)=O)[C@]5(CC)C=CCN6CC[C@]43[C@@H]65)C2)C1", "note": "[vinblastine, reference compound]", "values": [
      {"measurement": "amount of [^3H]vinblastine in the flow-through", "setting": "[1]", "value": "reduced the amount of [^3H]vinblastine found in the flow-through in a concentration-dependent manner"},
      {"measurement": "IC50", "setting": "[2]", "value": 4.74, "unit": "nM"},
      {"measurement": "amount of [^3H]colchicine in the flow-through", "setting": "[3]", "value": "did not influence the amount of [^3H]colchicine in the flow-through"},
      {"measurement": "IC50", "setting": "[4]", "value": 135, "unit": "nM"}
    ]}
  ]
}
